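Test compounds were applied to cells in 96-well plates for 48 hours at 5 doses. At the TGI there is no net growth.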
Columns and labels:
Test in all cases: inhibition of tumour cell growth, NCI panel, 48 h
OVCAR-8 ovarian = test system: OVCAR-8 ovarian
UO-31 renal = test system: UO-31 renal
EKVX NSCLC = test system: EKVX NSCLC
MALME-3M melanoma = test system: MALME-3M melanoma
M19-MEL melanoma = test system: M19-MEL melanoma
SNB-75 CNS = test system: SNB-75 CNS
UACC-257 melanoma = test system: UACC-257 melanoma
NCI-H460 lung = test system: NCI-H460 lung
SNB-19 CNS = test system: SNB-19 CNS
CAKI-1 renal = test system: CAKI-1 renal
RXF 393 renal = test system: RXF 393 renal
KM20L2 colon = test system: KM20L2 colon
IGROV1 ovarian = test system: IGROV1 ovarian
SW-620 colon = test system: SW-620 colon
SK-MEL-28 melanoma = test system: SK-MEL-28 melanoma
COLO 205 colon = test system: COLO 205 colon
ACHN renal = test system: ACHN renal
HOP-18 NSCLC = test system: HOP-18 NSCLC
KM12 colon = test system: KM12 colon
HOP-62 NSCLC = test system: HOP-62 NSCLC
MOLT-4 leukemia = test system: MOLT-4 leukemia
TK-10 renal = test system: TK-10 renal
OVCAR-5 ovarian = test system: OVCAR-5 ovarian
HL-60(TB) leukemia = test system: HL-60(TB) leukemia
A498 renal = test system: A498 renal
NCI-H23 lung = test system: NCI-H23 lung
LXFL 529 NSCLC = test system: LXFL 529 NSCLC
RPMI-8226 leukemia = test system: RPMI-8226 leukemia
OVCAR-4 ovarian = test system: OVCAR-4 ovarian
SF-539 CNS = test system: SF-539 CNS
RXF-631 renal = test system: RXF-631 renal
HCT-116 colon = test system: HCT-116 colon
OVCAR-3 ovarian = test system: OVCAR-3 ovarian
SK-MEL-5 melanoma = test system: SK-MEL-5 melanoma
SR leukemia = test system: SR leukemia
CCRF-CEM leukemia = test system: CCRF-CEM leukemia
786-0 renal = test system: 786-0 renal
M14 melanoma = test system: M14 melanoma
HOP-92 NSCLC = test system: HOP-92 NSCLC
SN12C renal = test system: SN12C renal
DLD-1 colon = test system: DLD-1 colon
NCI-H522 lung = test system: NCI-H522 lung
HCT-15 colon = test system: HCT-15 colon
HCC-2998 colon = test system: HCC-2998 colon
K-562 leukemia = test system: K-562 leukemia
SF-268 CNS = test system: SF-268 CNS
SF-295 CNS = test system: SF-295 CNS
UACC-62 melanoma = test system: UACC-62 melanoma
SK-OV-3 ovarian = test system: SK-OV-3 ovarian
A549 NSCLC = test system: A549 NSCLC
U251 CNS = test system: U251 CNS
HT29 colon = test system: HT29 colon
NCI-H226 lung = test system: NCI-H226 lung
SNB-78 CNS = test system: SNB-78 CNS
LOX IMVI melanoma = test system: LOX IMVI melanoma
DMS 114 small cell lung = test system: DMS 114 small cell lung
DMS 273 small cell lung = test system: DMS 273 small cell lung
SK-MEL-2 melanoma = test system: SK-MEL-2 melanoma

`CCOC(=O)C1=NC(c2ccccc2)(c2ccccc2)OC1=C(Cl)Cl` was tested, and the TGI (OVCAR-8 ovarian) was > 100 µM, the TGI (UO-31 renal) was > 100 µM and the TGI (EKVX NSCLC) was > 100 µM. The TGI (MALME-3M melanoma) was > 100 µM, the TGI (M19-MEL melanoma) was > 100 µM and the TGI (SNB-75 CNS) was > 100 µM. For the same molecule, the TGI (UACC-257 melanoma) was > 100 µM, the TGI (NCI-H460 lung) was > 100 µM and the TGI (SNB-19 CNS) was > 100 µM. For the same molecule, the TGI (CAKI-1 renal) was > 100 µM, the TGI (RXF 393 renal) was 12.5 µM and the TGI (KM20L2 colon) was > 100 µM. For the same molecule, the TGI (IGROV1 ovarian) was > 100 µM, the TGI (SW-620 colon) was > 100 µM and the TGI (SK-MEL-28 melanoma) was > 100 µM. For the same molecule, the TGI (COLO 205 colon) was > 100 µM, the TGI (ACHN renal) was > 100 µM and the TGI (HOP-18 NSCLC) was > 100 µM. The TGI (KM12 colon) was > 100 µM, the TGI (HOP-62 NSCLC) was > 100 µM and the TGI (MOLT-4 leukemia) was > 100 µM. The TGI (TK-10 renal) was > 100 µM, the TGI (OVCAR-5 ovarian) was > 100 µM and the TGI (HL-60(TB) leukemia) was 34.8 µM. The TGI (A498 renal) was > 100 µM, the TGI (NCI-H23 lung) was > 100 µM and the TGI (LXFL 529 NSCLC) was > 100 µM. The TGI (RPMI-8226 leukemia) was > 100 µM, the TGI (OVCAR-4 ovarian) was > 100 µM and the TGI (SF-539 CNS) was > 100 µM. The TGI (RXF-631 renal) was > 100 µM, the TGI (HCT-116 colon) was > 100 µM and the TGI (OVCAR-3 ovarian) was > 100 µM. For the same molecule, the TGI (SK-MEL-5 melanoma) was > 100 µM, the TGI (SR leukemia) was > 100 µM and the TGI (CCRF-CEM leukemia) was > 100 µM. The TGI (786-0 renal) was > 100 µM, the TGI (M14 melanoma) was > 100 µM and the TGI (HOP-92 NSCLC) was > 100 µM. For the same molecule, the TGI (SN12C renal) was > 100 µM, the TGI (DLD-1 colon) was > 100 µM and the TGI (NCI-H522 lung) was > 100 µM. For the same molecule, the TGI (HCT-15 colon) was > 100 µM, the TGI (HCC-2998 colon) was 57.4 µM and the TGI (K-562 leukemia) was > 100 µM. The TGI (SF-268 CNS) was > 100 µM, the TGI (SF-295 CNS) was > 100 µM and the TGI (UACC-62 melanoma) was > 100 µM. For the same molecule, the TGI (SK-OV-3 ovarian) was > 100 µM, the TGI (A549 NSCLC) was > 100 µM and the TGI (U251 CNS) was > 100 µM. For the same molecule, the TGI (HT29 colon) was > 100 µM, the TGI (NCI-H226 lung) was > 100 µM and the TGI (SNB-78 CNS) was > 100 µM. The TGI (LOX IMVI melanoma) was > 100 µM.
In the case of `Cc1ccc(N=Nc2c(-c3ccccc3)nn(C(=O)CC(=O)Nc3ccc(Cl)cc3)c2-c2ccccc2)cc1`, the TGI (OVCAR-8 ovarian) is reported as > 100 µM, the TGI (UO-31 renal) is reported as 86.3 µM and the TGI (EKVX NSCLC) is reported as 18.3 µM. For the same molecule, the TGI (MALME-3M melanoma) was > 100 µM, the TGI (SNB-75 CNS) was 73.5 µM and the TGI (UACC-257 melanoma) was > 100 µM. The TGI (NCI-H460 lung) was > 100 µM, the TGI (SNB-19 CNS) was > 100 µM and the TGI (CAKI-1 renal) was > 100 µM. For the same molecule, the TGI (DMS 114 small cell lung) was > 100 µM, the TGI (RXF 393 renal) was 99.6 µM and the TGI (KM20L2 colon) was > 100 µM. For the same molecule, the TGI (IGROV1 ovarian) was > 100 µM, the TGI (SW-620 colon) was > 100 µM and the TGI (SK-MEL-28 melanoma) was > 100 µM. For the same molecule, the TGI (COLO 205 colon) was > 100 µM, the TGI (ACHN renal) was > 100 µM and the TGI (HOP-18 NSCLC) was > 100 µM. The TGI (KM12 colon) was > 100 µM, the TGI (HOP-62 NSCLC) was > 100 µM and the TGI (MOLT-4 leukemia) was 79.1 µM. The TGI (OVCAR-5 ovarian) was > 100 µM, the TGI (HL-60(TB) leukemia) was > 100 µM and the TGI (A498 renal) was 94.9 µM. For the same molecule, the TGI (NCI-H23 lung) was > 100 µM, the TGI (LXFL 529 NSCLC) was 94.5 µM and the TGI (RPMI-8226 leukemia) was 86.7 µM. The TGI (OVCAR-4 ovarian) was > 100 µM, the TGI (SF-539 CNS) was > 100 µM and the TGI (RXF-631 renal) was > 100 µM. The TGI (HCT-116 colon) was > 100 µM, the TGI (OVCAR-3 ovarian) was 99.6 µM and the TGI (SK-MEL-5 melanoma) was > 100 µM. For the same molecule, the TGI (SR leukemia) was 57.3 µM, the TGI (CCRF-CEM leukemia) was 72.5 µM and the TGI (786-0 renal) was > 100 µM. For the same molecule, the TGI (M14 melanoma) was > 100 µM, the TGI (HOP-92 NSCLC) was 66.9 µM and the TGI (SN12C renal) was > 100 µM. The TGI (DLD-1 colon) was > 100 µM, the TGI (NCI-H522 lung) was > 100 µM and the TGI (HCT-15 colon) was > 100 µM. The TGI (DMS 273 small cell lung) was > 100 µM, the TGI (HCC-2998 colon) was > 100 µM and the TGI (K-562 leukemia) was > 100 µM. The TGI (SF-268 CNS) was > 100 µM, the TGI (SF-295 CNS) was > 100 µM and the TGI (UACC-62 melanoma) was > 100 µM. For the same molecule, the TGI (SK-OV-3 ovarian) was > 100 µM, the TGI (A549 NSCLC) was > 100 µM and the TGI (U251 CNS) was > 100 µM. For the same molecule, the TGI (SK-MEL-2 melanoma) was > 100 µM, the TGI (HT29 colon) was > 100 µM and the TGI (NCI-H226 lung) was > 100 µM. For the same molecule, the TGI (SNB-78 CNS) was > 100 µM and the TGI (LOX IMVI melanoma) was > 100 µM.
`CC1=C(/C=C/C(C)=C/C=C/C(C)=C/C=C/C=C(C)/C=C/C=C(C)/C=C/C=C(C)/C=C/C=C(\C)C(=O)O)C(C)(C)CCC1` was tested, and the TGI (OVCAR-8 ovarian) was > 100 µM, the TGI (UO-31 renal) was > 100 µM and the TGI (EKVX NSCLC) was > 100 µM. For the same molecule, the TGI (MALME-3M melanoma) was > 100 µM, the TGI (SNB-75 CNS) was > 100 µM and the TGI (UACC-257 melanoma) was > 100 µM. For the same molecule, the TGI (NCI-H460 lung) was > 100 µM, the TGI (SNB-19 CNS) was > 100 µM and the TGI (CAKI-1 renal) was > 100 µM. For the same molecule, the TGI (DMS 114 small cell lung) was > 100 µM, the TGI (RXF 393 renal) was > 100 µM and the TGI (KM20L2 colon) was > 100 µM. The TGI (IGROV1 ovarian) was > 100 µM, the TGI (SW-620 colon) was > 100 µM and the TGI (SK-MEL-28 melanoma) was > 100 µM. For the same molecule, the TGI (COLO 205 colon) was > 100 µM, the TGI (ACHN renal) was > 100 µM and the TGI (HOP-18 NSCLC) was > 100 µM. The TGI (KM12 colon) was > 100 µM, the TGI (HOP-62 NSCLC) was > 100 µM and the TGI (MOLT-4 leukemia) was > 100 µM. For the same molecule, the TGI (TK-10 renal) was > 100 µM, the TGI (OVCAR-5 ovarian) was > 100 µM and the TGI (A498 renal) was > 100 µM. For the same molecule, the TGI (NCI-H23 lung) was > 100 µM, the TGI (LXFL 529 NSCLC) was > 100 µM and the TGI (RPMI-8226 leukemia) was > 100 µM. For the same molecule, the TGI (OVCAR-4 ovarian) was > 100 µM, the TGI (SF-539 CNS) was > 100 µM and the TGI (RXF-631 renal) was > 100 µM. For the same molecule, the TGI (HCT-116 colon) was > 100 µM, the TGI (OVCAR-3 ovarian) was > 100 µM and the TGI (SK-MEL-5 melanoma) was > 100 µM. The TGI (CCRF-CEM leukemia) was > 100 µM, the TGI (786-0 renal) was > 100 µM and the TGI (M14 melanoma) was > 100 µM. For the same molecule, the TGI (SN12C renal) was > 100 µM, the TGI (DLD-1 colon) was > 100 µM and the TGI (NCI-H522 lung) was > 100 µM. For the same molecule, the TGI (HCT-15 colon) was > 100 µM, the TGI (DMS 273 small cell lung) was > 100 µM and the TGI (K-562 leukemia) was > 100 µM. The TGI (SF-268 CNS) was > 100 µM, the TGI (SF-295 CNS) was > 100 µM and the TGI (UACC-62 melanoma) was > 100 µM. For the same molecule, the TGI (SK-OV-3 ovarian) was > 100 µM, the TGI (A549 NSCLC) was > 100 µM and the TGI (U251 CNS) was > 100 µM. For the same molecule, the TGI (SK-MEL-2 melanoma) was > 100 µM, the TGI (HT29 colon) was > 100 µM and the TGI (NCI-H226 lung) was > 100 µM. The TGI (SNB-78 CNS) was > 100 µM.

— PubChem BioAssay (NCI)
